Columns and labels:
[1] = target: T1, cloned human and rat GPR-14 (UniProt Q9UKP6); test: Radioligand binding, [125I] h-U-II on HEK-293 cell membranes; conditions: HEK-293 cell membranes with stable cloned GPR-14, 200 pM [125I] h-U-II; species of receptor not given
T1 sequence (Q9UKP6 1-389): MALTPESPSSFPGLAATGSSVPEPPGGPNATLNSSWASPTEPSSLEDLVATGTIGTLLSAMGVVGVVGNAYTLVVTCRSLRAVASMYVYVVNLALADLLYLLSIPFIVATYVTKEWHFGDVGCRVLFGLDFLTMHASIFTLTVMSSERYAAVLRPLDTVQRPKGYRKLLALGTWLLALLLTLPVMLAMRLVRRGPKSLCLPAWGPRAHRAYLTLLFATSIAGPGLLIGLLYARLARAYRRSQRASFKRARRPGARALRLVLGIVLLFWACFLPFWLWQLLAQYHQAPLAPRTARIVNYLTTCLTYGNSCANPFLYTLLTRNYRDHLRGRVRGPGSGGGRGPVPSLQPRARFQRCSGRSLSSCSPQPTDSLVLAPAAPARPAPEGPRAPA
Protocol: HEK-293 cell membranes containing stable cloned human and rat GPR-14 (20 ug/assay) were incubated with 200 pM [125I] h-U-II (200 Ci/mmol^−1 in the presence of increasing concentrations of test compounds in DMSO (0.1 nM to 10 uM), in a final incubation volume of 200 ul (20 mM Tris-HCl, 5 mM MgCl2). Incubation was done for 30 minutes at room temperature followed by filtration GF/B filters with Brandel cell harvester. ^125I labeled U-II binding was quantitated by gamma counting. Nonspecific binding was defined by ^125I U-II binding in the presence of 100 nM of unlabeled human U-II. Analysis of the data was performed by nonlinear least square fitting.

Row | melting point | Ki [1] | SMILES
1 | 103 to 106 °C (dec.) |  | CN(C)CCOc1cc(NS(=O)(=O)c2ccc(Oc3cccc(Cl)c3C#N)cc2)ccc1Cl [Example 1, 4-(3-Chloro-2-cyano-phenoxy)N-[4-chloro-3-(2-dimethylamino-ethoxy)-phenyl]-benzenesulfonamide]
2 |  | 0.52 µM | CCN(CC)CCOc1cc(NS(=O)(=O)c2cc(Cl)c(Oc3ccc([N+](=O)[O-])cc3Cl)c(Cl)c2)ccc1Cl [Example 19, 3,5-Dichloro-N-[4-chloro-3-(2-diethylamino-ethoxy)-phenyl]-4-(2-chloro-4-nitro-phenoxy)-benzenesulfonamide]

— patent publication US6849635B2, “Sulfonamides” (SmithKline Beecham Corporation, priority 2001, dated 2005)
